US20260137693A1, “CANCER TREATMENTS USING MTA-COOPERATIVE PRMT5 INHIBITORS AND MAT2A INHIBITORS” (AMGEN INC., priority 2022, published 2026)

Assays:
[1] = test system: NSCLC cancer cell line CALU1; test: Combination of Compound A and Compound B, CellTiter-Glo cell viability, CALU1 (Example 2); assay type: cell-based; conditions: CALU1, 6 days, up to 10 μM
Procedure: NSCLC cancer cell line CALU1 was treated with the combination of Compound A and Compound B for 6 days. Top concentration of Compound A tested was 10 μM with a total of nine 1.9-fold dilutions and DMSO-only control. Top concentration of Compound B tested was 10 μM with a total of five 2-fold dilutions and DMSO-only control. Cell viability was measured by the CellTiter-Glo Luminescence assay. Raw luminescent values were converted to POC with the following equation: POC=100*(Treatment/Vehicle). FIG. 1 represents 1 of the 2 studies conducted. N=2 technical replicates. Mean and standard deviation graphed.

[2] = test system: Pancreatic cancer cell line BxPC3; test: Combination of Compound A and Compound B, CellTiter-Glo cell viability, BxPC3 (Example 2); assay type: cell-based; conditions: BxPC3, 6 days, up to 10 μM
Procedure: Pancreatic cancer cell line BxPC3 was treated with the combination of Compound A and Compound B for 6 days. Top concentration of Compound A tested was 2 μM with a total of nine 1.9-fold dilutions and DMSO-only control. Top concentration of Compound B tested was 10 μM with a total of five 2-fold dilutions and DMSO-only control. Cell viability was measured by the CellTiter-Glo Luminescence assay. Raw luminescent values were converted to POC with the following equation: POC=100*(Treatment/Vehicle). FIG. 2 represents 1 of the 3 studies conducted. N=2 technical replicates. Mean and standard deviation graphed.

Nc1nc(=O)n(-c2ccccc2Cl)c2nc(C(F)(F)F)ccc12 [Compound B, 4-amino-1-(2-chlorophenyl)-7-(trifluoromethyl)pyrido[2,3-d]pyrimidin-2(1H)-one]
sensitivity of the model to single agent [1]: insensitive | sensitivity of the model to single agent [2]: insensitive
